Here are results for 13 compounds from patent publication US6395766B1, “Tetrahydroindolone derivatives as gabaaalpha5 ligands for enhancing cognition” (Merck Sharp & Dohme Limited, priority 1998, dated 2002).

SMILES strings stand for the structures.

Take `CCc1cn(-c2ccccn2)c2c1C(=O)CC(C)(C)C2` [Example 1, 6,6-Dimethyl 3-Ethyl-1-(pyridin-2-yl)-4,5,6,7-tetrahydroindol-4-one]: the melting point (usually the temperature, or range, at which the solid turns liquid) was in the range of 125 to 127 °C.

As for `CC1(C)CC(=O)c2c(C(C)(C)C)cn(-c3ccccn3)c2C1` [Example 2, 6,6-Dimethyl-3-(1,1-dimethylethyl)-1-(pyridin-2-yl)-4,5,6,7-tetrahydroindol-4-one], the melting point fell in the range of 143 to 145 °C. To `CCc1cn(-c2ncccn2)c2c1C(=O)CC(C)(C)C2` [Example 4, 3-Ethyl-6,6-dimethyl-1-(pyrimidin-2-yl)-4,5,6,7-tetrahydroindol-4-one] belongs 111 to 114 °C; to `CCc1cn(-c2nccs2)c2c1C(=O)CC(C)(C)C2` [Example 5, 6,6-Dimethyl-3-ethyl-1-(thiazol-2-yl)-4,5,6,7-tetrahydroindol-4-one], 58 to 60 °C; to `CC1(C)CC(=O)c2c(SCc3ccccc3)cn(-c3ccccn3)c2C1` [Example 14, 6,6-Dimethyl-3(phenylmethyl)thio-1-(pyridin-2-yl)-4,5,6,7-tetrahydroindol-4-one], 190 to 192 °C.

Regarding `CC1(C)CC(=O)c2c(-c3nccs3)cn(-c3ccccn3)c2C1` [Example 15, 6,6-Dimethyl-1-(pyridin-2-yl)-3-(thiazol-2-yl)-4,5,6,7-tetrahydroindol-4-one], the melting point lay in the range of 166 to 168 °C. To `CC1(C)CC(=O)c2c(-c3ccccc3)cn(-c3ccccn3)c2C1` [Example 16, 6,6-Dimethyl-3-phenyl-1-(pyridin-2-yl)-4,5,6,7-tetrahydroindol-4-one] belongs 160 to 162 °C; to `CC1(C)CC(=O)c2c(-c3ccccn3)cn(-c3ccccn3)c2C1` [Example 17, 6,6-Dimethyl-1-(pyridin-2-yl)-3-(pyridin-2-yl)-4,5,6,7-tetrahydroindol-4-one], 171 to 174 °C; to `C=Cc1cn(-c2ccccn2)c2c1C(=O)CC(C)(C)C2` [Example 18, 6,6-Dimethyl-1-(pyridin-2-yl)-3-vinyl-4,5,6,7-tetrahydroindol-4-one], 150 to 154 °C. The result for `CC1(C)CC(=O)c2c(Cc3ccccc3)cn(-c3ccccn3)c2C1` [Example 19, 6,6-Dimethyl-3-phenylmethyl-1-(pyridin-2-yl)-4,5,6,7-tetrahydroindol-4-one] reads 111 to 113 °C.

The compound `CC1(C)CC(=O)c2c(-c3cncs3)cn(-c3ccccn3)c2C1` [Example 21, 6,6-Dimethyl-1-(pyridin-2-yl)-3-(thiazol-5-yl)-4,5,6,7-tetrahydroindol-4-one] came in with a melting point of 167 to 169 °C. To `CC1(C)CC(=O)c2c(Nc3ccccc3)cn(-c3ccccn3)c2C1` [Example 22, 6,6-Dimethyl-3-phenylamino-1-(pyridin-2-yl)-4,5,6,7-tetrahydroindol-4-one] belongs 135 to 138 °C; to `CC1(C)CC(=O)c2c(Nc3ccccn3)cn(-c3ccccn3)c2C1` [Example 23, 6,6-Dimethyl-1-(pyridin-2-yl)-3-(pyridin-2-ylamino)-4,5,6,7-tetrahydroindol-4-one], 180 to 183 °C.
